According to patent publication US8415378B2, “Isoxazol-3(2H)-one analogs as therapeutic agents” (AstraZeneca AB, priority 2009, dated 2013):

What follows are compounds tested against T1, human Glu-plasminogen (Homo sapiens, UniProt P00747) (assay: Clot-lysis buffer assay).
T1 construct: human Glu-plasminogen; purchased Chromogenix, Italy
Assay type: biochemical
Procedure: The assay method used for evaluating biological activity of the compounds according to the invention was Clot-lysis buffer assay.
Tested substance were added to the reaction mixture in 10% DMSO. Reaction was started by the addition of thrombin.
Measured according to the Clot-lysis buffer assay described above.

T1 sequence (P00747 20-810 limits assumed): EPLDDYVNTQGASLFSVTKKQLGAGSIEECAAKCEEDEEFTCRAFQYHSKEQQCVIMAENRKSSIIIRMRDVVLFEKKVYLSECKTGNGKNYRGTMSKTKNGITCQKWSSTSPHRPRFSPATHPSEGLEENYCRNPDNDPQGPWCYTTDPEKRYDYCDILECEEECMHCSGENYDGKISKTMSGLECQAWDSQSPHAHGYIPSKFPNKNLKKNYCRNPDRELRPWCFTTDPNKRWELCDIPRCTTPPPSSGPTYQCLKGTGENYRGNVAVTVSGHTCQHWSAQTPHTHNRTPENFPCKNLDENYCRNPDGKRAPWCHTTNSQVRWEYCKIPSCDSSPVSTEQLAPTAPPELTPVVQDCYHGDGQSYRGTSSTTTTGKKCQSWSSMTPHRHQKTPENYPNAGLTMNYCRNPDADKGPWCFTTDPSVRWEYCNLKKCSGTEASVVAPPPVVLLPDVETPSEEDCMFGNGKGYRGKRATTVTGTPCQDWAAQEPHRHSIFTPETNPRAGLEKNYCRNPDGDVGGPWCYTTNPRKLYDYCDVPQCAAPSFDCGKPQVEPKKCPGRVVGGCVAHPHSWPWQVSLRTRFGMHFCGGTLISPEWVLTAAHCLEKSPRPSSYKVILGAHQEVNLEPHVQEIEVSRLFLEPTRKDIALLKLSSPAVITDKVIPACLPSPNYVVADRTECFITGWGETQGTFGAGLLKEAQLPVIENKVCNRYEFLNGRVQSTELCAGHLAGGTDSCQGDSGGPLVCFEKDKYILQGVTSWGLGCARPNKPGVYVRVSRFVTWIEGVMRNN

Point of comparison: `O=c1cc([C@@H]2CCN[C@@H](c3ccc(OC(F)(F)F)cc3F)C2)o[nH]1` (relative stereo) [Example 59, 5-(Trans-2-(2-fluoro-4-(trifluoromethoxy)phenyl)piperidin-4-yl)isoxazol-3(2H)-one], IC50 70.7 µM. Against it:
- O=c1cc([C@@H]2CCN[C@@H](c3ccc(F)c(F)c3)C2)o[nH]1 (relative stereo) [Example 24, 5-(Trans-2-(3,4-difluorophenyl)piperidin-4-yl)isoxazol-3(2H)-one] — 1.7-fold lower, 42.8 µM
- O=c1cc([C@@H]2CCN[C@@H](c3ccc(F)cc3)C2)o[nH]1 (relative stereo) [Example 26, 5-(Trans-2-(4-fluorophenyl)piperidin-4-yl)isoxazol-3(2H)-one] — within 1.5-fold, 73.8 µM
- O=c1cc([C@@H]2CCN[C@@H](c3ccc(Cl)cc3)C2)o[nH]1 (relative stereo) [Example 29, 5-(Trans-2-(4-chlorophenyl)piperidin-4-yl)isoxazol-3(2H)-one] — 2.9-fold lower, 24 µM
- O=c1cc([C@@H]2CCN[C@@H](c3cccc(C(F)(F)F)c3)C2)o[nH]1 (relative stereo) [Example 32, 5-(Trans-2-(3-(trifluoromethyl)phenyl)piperidin-4-yl)isoxazol-3(2H)-one] — 3-fold lower, 23.6 µM
- O=c1cc([C@@H]2CCN[C@@H](c3ccc(C(F)(F)F)cc3)C2)o[nH]1 (relative stereo) [Example 35, 5-(Trans-2-(4-(trifluoromethyl)phenyl)piperidin-4-yl)isoxazol-3(2H)-one] — 4.9-fold lower, 14.4 µM
- CC(C)(C)c1ccc([C@H]2C[C@H](c3cc(=O)[nH]o3)CCN2)cc1 (relative stereo) [Example 37, 5-(Trans-2-(4-tert-butylphenyl)piperidin-4-yl)isoxazol-3(2H)-one] — 3.2-fold higher, 228 µM
- O=c1cc([C@@H]2CCN[C@@H](c3ccc(C(F)(F)F)nc3)C2)o[nH]1 (relative stereo) [Example 41, 5-(Trans-2-(6-(trifluoromethyl)pyridin-3-yl)piperidin-4-yl)isoxazol-3(2H)-one] — 1.7-fold lower, 40.9 µM
- O=c1cc([C@@H]2CCN[C@@H](c3ccc(Cl)cc3F)C2)o[nH]1 (relative stereo) [Example 46, 5-(Trans-2-(4-chloro-2-fluorophenyl)piperidin-4-yl)isoxazol-3(2H)-one] — within 1.5-fold, 90.7 µM
- O=c1cc([C@@H]2CCN[C@@H](c3ccc(F)cc3Cl)C2)o[nH]1 (relative stereo) [Example 48, 5-(Trans-2-(2-chloro-4-fluorophenyl)piperidin-4-yl)isoxazol-3(2H)-one] — 1.6-fold lower, 44.3 µM
- O=c1cc([C@@H]2CCN[C@@H](c3ccc(Cl)c(F)c3)C2)o[nH]1 (relative stereo) [Example 50, 5-(Trans-2-(4-chloro-3-fluorophenyl)piperidin-4-yl)isoxazol-3(2H)-one] — 13-fold lower, 5.3 µM
- O=c1cc([C@@H]2CCN[C@@H](c3cc(Cl)cc(Cl)c3)C2)o[nH]1 (relative stereo) [Example 57, 5-(Trans-2-(3,5-dichlorophenyl)piperidin-4-yl)isoxazol-3(2H)-one] — 1.8-fold lower, 40 µM
- O=c1cc([C@@H]2CCN[C@@H](c3cc(F)c(F)c(F)c3)C2)o[nH]1 (relative stereo) [Example 62, 5-(Trans-2-(3,4,5-trifluorophenyl)piperidin-4-yl)isoxazol-3(2H)-one] — 10-fold lower, 7.1 µM
- O=c1cc([C@@H]2CCN[C@@H](c3cc(F)c(Cl)c(F)c3)C2)o[nH]1 (relative stereo) [Example 66, 5-(Trans-2-(4-chloro-3,5-difluorophenyl)piperidin-4-yl)isoxazol-3(2H)-one] — 9.4-fold lower, 7.5 µM
- Cc1cc([C@H]2C[C@H](c3cc(=O)[nH]o3)CCN2)ccc1C(F)(F)F (relative stereo) [Example 69, 5-(Trans-2-(3-methyl-4-(trifluoromethyl)phenyl)piperidin-4-yl)isoxazol-3(2H)-one] — within 1.5-fold, 92.5 µM
- O=c1cc([C@@H]2CCN[C@@H](c3cc(F)c(C(F)(F)F)c(F)c3)C2)o[nH]1 (relative stereo) [Example 71, 5-(Trans-2-(3,5-difluoro-4-(trifluoromethyl)phenyl)piperidin-4-yl)isoxazol-3(2H)-one] — 6.1-fold lower, 11.6 µM
- O=c1cc([C@@H]2CCN[C@@H](c3ccc(C(F)(F)F)cc3F)C2)o[nH]1 (relative stereo) [Example 74, 5-(Trans-2-(2-fluoro-4-(trifluoromethyl)phenyl)piperidin-4-yl)isoxazol-3(2H)-one] — within 1.5-fold, 52.2 µM
- Cn1nnc([C@H]2C[C@H](c3cc(=O)[nH]o3)CCN2)n1 (relative stereo) [Example 82, 5-(Trans-2-(2-methyl-2H-tetrazol-5-yl)piperidin-4-yl)isoxazol-3(2H)-one] — 3.5-fold lower, 20.3 µM
- O=c1cc([C@@H]2CCN[C@@H](COC3CCCCC3)C2)o[nH]1 (relative stereo) [Example 86, 5-(Trans-2-(cyclohexyloxymethyl)piperidin-4-yl)isoxazol-3(2H)-one] — 4.5-fold lower, 15.6 µM
- O=c1cc([C@@H]2CCN[C@@H](C(F)F)C2)o[nH]1 (relative stereo) [Example 88, 5-(Trans-2-(difluoromethyl)piperidin-4-yl)isoxazol-3(2H)-one] — 2.3-fold lower, 31.2 µM
- O=c1cc([C@@H]2CCN[C@@H](CC3CCC(F)(F)CC3)C2)o[nH]1 (relative stereo) [Example 91, 5-(Trans-2-((4,4-difluorocyclohexyl)methyl)piperidin-4-yl)isoxazol-3(2H)-one] — 12-fold lower, 5.9 µM
- O=c1cc([C@@H]2CCN[C@@H](CCc3ccc(F)cc3)C2)o[nH]1 (relative stereo) [Example 94, 5-(Trans-2-(4-fluorophenethyl)piperidin-4-yl)isoxazol-3(2H)-one] — 15-fold lower, 4.6 µM
- O=c1cc([C@@H]2CCN[C@@H](Cc3cccc(C(F)(F)F)c3)C2)o[nH]1 (relative stereo) [Example 109, 5-(Trans-2-(3-(trifluoromethyl)benzyl)piperidin-4-yl)isoxazol-3(2H)-one] — 14-fold lower, 5 µM
- O=c1cc([C@@H]2CCN[C@@H](Cc3ccccc3C(F)(F)F)C2)o[nH]1 (relative stereo) [Example 112, 5-(Trans-2-(2-(trifluoromethyl)benzyl)piperidin-4-yl)isoxazol-3(2H)-one] — 13-fold lower, 5.5 µM
- O=c1cc([C@@H]2CCN[C@@H](Cc3ccc(OC(F)(F)F)cc3)C2)o[nH]1 (relative stereo) [Example 114, 5-(Trans-2-(4-(trifluoromethoxy)benzyl)piperidin-4-yl)isoxazol-3(2H)-one] — 11-fold lower, 6.5 µM
- O=c1cc([C@@H]2CCN[C@@H](Cc3ccc(Cl)cc3)C2)o[nH]1 (relative stereo) [Example 116, 5-(Trans-2-(4-chlorobenzyl)piperidin-4-yl)isoxazol-3(2H)-one] — 13-fold lower, 5.6 µM
- CS(=O)(=O)c1ccc(C[C@H]2C[C@H](c3cc(=O)[nH]o3)CCN2)cc1 (relative stereo) [Example 119, 5-(Trans-2-(4-(methylsulfonyl)benzyl)piperidin-4-yl)isoxazol-3(2H)-one] — 6.6-fold lower, 10.7 µM
- O=c1cc([C@@H]2CCN[C@@H](Cc3cc(F)ccc3F)C2)o[nH]1 (relative stereo) [Example 126, 5-(Trans-2-(2,5-difluorobenzyl)piperidin-4-yl)isoxazol-3(2H)-one] — 20-fold lower, 3.6 µM
- O=c1cc([C@@H]2CCN[C@@H](Cc3c(F)cccc3F)C2)o[nH]1 (relative stereo) [Example 129, 5-(Trans-2-(2,6-difluorobenzyl)piperidin-4-yl)isoxazol-3(2H)-one] — 6.9-fold lower, 10.2 µM
- O=c1cc([C@@H]2CCN[C@@H](Cc3ccc(F)cc3F)C2)o[nH]1 (relative stereo) [Example 136, 5-(Trans-2-(2,4-difluorobenzyl)piperidin-4-yl)isoxazol-3(2H)-one] — 14-fold lower, 4.94 µM
- O=c1cc([C@@H]2CCN[C@@H](Cc3cc(F)cc(C(F)(F)F)c3)C2)o[nH]1 (relative stereo) [Example 139, 5-(Trans-2-(3-fluoro-5-(trifluoromethyl)benzyl)piperidin-4-yl)isoxazol-3(2H)-one] — 24-fold lower, 2.9 µM
- O=c1cc([C@@H]2CCN[C@@H](Cc3ccc(C(F)(F)F)c(F)c3)C2)o[nH]1 (relative stereo) [Example 142, 5-(Trans-2-(3-fluoro-4-(trifluoromethyl)benzyl)piperidin-4-yl)isoxazol-3(2H)-one] — 39-fold lower, 1.8 µM
- O=c1cc([C@@H]2CCN[C@@H](Cc3cc(F)c(F)c(F)c3)C2)o[nH]1 (relative stereo) [Example 145, 5-(Trans-2-(3,4,5-trifluorobenzyl)piperidin-4-yl)isoxazol-3(2H)-one] — 16-fold lower, 4.3 µM
- CC(C)(C)c1cc(C[C@H]2C[C@H](c3cc(=O)[nH]o3)CCN2)cc(C(C)(C)C)c1 (relative stereo) [Example 148, 5-(Trans-2-(3,5-di-tert-butylbenzyl)piperidin-4-yl)isoxazol-3(2H)-one] — 26-fold lower, 2.7 µM
- CC(C)(C)c1ccc(C[C@@H]2C[C@@H](c3cc(=O)[nH]o3)CCN2)cc1 [Example 11, 5-((2S,4S)-2-(4-tert-Butylbenzyl)piperidin-4-yl)isoxazol-3(2H)-one] — 16-fold lower, 4.3 µM
- CC(C)(C)c1ccc(C[C@H]2C[C@@H](c3cc(=O)[nH]o3)CCN2)cc1 [Example 12, 5-((2R,4S)-2-(4-tert-Butylbenzyl)piperidin-4-yl)isoxazol-3(2H)-one] — 31-fold lower, 2.25 µM
- CC(C)(C[C@@H]1C[C@@H](c2cc(=O)[nH]o2)CCN1)c1ccccc1 [Example 18, 5-((2S,4S)-2-(2-Methyl-2-phenylpropyl)piperidin-4-yl)isoxazol-3(2H)-one] — 44-fold lower, 1.6 µM
- CC(C)(C[C@H]1C[C@@H](c2cc(=O)[nH]o2)CCN1)c1ccccc1 [Example 19, 5-((2R,4S)-2-(2-Methyl-2-phenylpropyl)piperidin-4-yl)isoxazol-3(2H)-one] — 44-fold lower, 1.6 µM
- O=c1cc([C@H]2CCN[C@@H](c3ccc(F)c(F)c3)C2)o[nH]1 [Example 23, 5-((2R,4S)-2-(3,4-Difluorophenyl)piperidin-4-yl)isoxazol-3(2H)-one] — 71-fold lower, 1 µM
- O=c1cc([C@H]2CCN[C@@H](c3ccc(F)cc3)C2)o[nH]1 [Example 25, 5-((2R,4S)-2-(4-Fluorophenyl)piperidin-4-yl)isoxazol-3(2H)-one] — 28-fold lower, 2.5 µM
